Source: patent US10039753B2, “Imidazo[4,5-c]quinoline and imidazo[4,5-c][1,5]naphthyridine derivatives as LRRK2 inhibitors” (Pfizer Inc., priority 2015, dated 2018)
Values belong to the compound of their own block, whether it stands above or below them.

Columns and labels:
[1] = target: mutant G2019S LRRK2 (Homo sapiens, UniProt Q5S007, G2019S); test: LRRK2 Assay, Format 1 (Lantha Screen), G2019S mutant
[2] = target: T1, GST-tagged truncated LRRK2 (Homo sapiens, UniProt Q5S007); test: LRRK2 Assay, Format 1 (Lantha Screen), WT; assay type: biochemical; conditions: Format 1, wild-type LRRK2; geometric mean of 2-4 determinations unless footnoted (a: ≥5 determinations; b: single determination; c: determined on trifluoroacetate salt)
T1 construct: GST-tagged truncated LRRK2 from Invitrogen (Cat # PV4874); GST; purchased Invitrogen PV4874
Procedure, shortened: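 Kinase activity measured by TR-FRET: GST-tagged truncated LRRK2 (4 μg/mL working solution) reacted with fluorescein-labeled LRRKtide (ERM-based peptide) across a compound dose response for 2 h at room temperature. Reaction stopped with EDTA-containing detection buffer (20 mM Tris pH 7.6) holding 2 nM terbium anti-phospho-ERM antibody.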

[3] = system: kinase selectivity mini-panel; test: Kinase selectivity (mini-panel), further assay run, Table 5A; assay type: biochemical; conditions: 1 mM ATP, 1 μM drug concentration; for percent inhibition of ABL: kinase ABL; for percent inhibition of AKT: kinase AKT; for percent inhibition of AURA: kinase AURA; for percent inhibition of BTK: kinase BTK; for percent inhibition of CDK2_CyclinA: kinase CDK2_CyclinA; for percent inhibition of CHK1: kinase CHK1; for percent inhibition of CHK2: kinase CHK2; for percent inhibition of CKIIa′: kinase CKIIa′; for percent inhibition of CKIa: kinase CKIa; for percent inhibition of CaMKIIa: kinase CaMKIIa; for percent inhibition of EGFR: kinase EGFR; for percent inhibition of ERK2: kinase ERK2; for percent inhibition of EphA2: kinase EphA2; for percent inhibition of FGFR1: kinase FGFR1; for percent inhibition of GSK3b: kinase GSK3b; for percent inhibition of HGFR: kinase HGFR; for percent inhibition of IRAK4: kinase IRAK4; for percent inhibition of IRK: kinase IRK; for percent inhibition of JAK3: kinase JAK3; for percent inhibition of KDR (VEGF): kinase KDR (VEGF); for percent inhibition of LCK: kinase LCK; for percent inhibition of MARK1: kinase MARK1; for percent inhibition of MK2: kinase MK2; for percent inhibition of MLCK_sk: kinase MLCK_sk; for percent inhibition of MST2: kinase MST2; for percent inhibition of MST4: kinase MST4; for percent inhibition of PAK4: kinase PAK4; for percent inhibition of PDK1: kinase PDK1; for percent inhibition of PIM2: kinase PIM2; for percent inhibition of PKACa: kinase PKACa; for percent inhibition of PRKCB2: kinase PRKCB2; for percent inhibition of ROCKI: kinase ROCKI; for percent inhibition of SGK: kinase SGK; for percent inhibition of SRC: kinase SRC; for percent inhibition of TAO2: kinase TAO2; for percent inhibition of TIE2: kinase TIE2; for percent inhibition of TRKA: kinase TRKA; for percent inhibition of ZC1 (HGK): kinase ZC1 (HGK); for percent inhibition of p38: kinase p38
Procedure: The compounds were run using a commercially available kinase selectivity assay which is available from CarnaBio USA, Inc. 209 West Central St., Suite 307, Natick, Mass. 01760 USA. The compounds of Examples 3, 4, 5 and 22 were run in the assay at a concentration of 1 μM using an ATP concentration of 1 mM.

mutant G2019S LRRK2, sequence (Q5S007 970-2527 G2019S limits assumed): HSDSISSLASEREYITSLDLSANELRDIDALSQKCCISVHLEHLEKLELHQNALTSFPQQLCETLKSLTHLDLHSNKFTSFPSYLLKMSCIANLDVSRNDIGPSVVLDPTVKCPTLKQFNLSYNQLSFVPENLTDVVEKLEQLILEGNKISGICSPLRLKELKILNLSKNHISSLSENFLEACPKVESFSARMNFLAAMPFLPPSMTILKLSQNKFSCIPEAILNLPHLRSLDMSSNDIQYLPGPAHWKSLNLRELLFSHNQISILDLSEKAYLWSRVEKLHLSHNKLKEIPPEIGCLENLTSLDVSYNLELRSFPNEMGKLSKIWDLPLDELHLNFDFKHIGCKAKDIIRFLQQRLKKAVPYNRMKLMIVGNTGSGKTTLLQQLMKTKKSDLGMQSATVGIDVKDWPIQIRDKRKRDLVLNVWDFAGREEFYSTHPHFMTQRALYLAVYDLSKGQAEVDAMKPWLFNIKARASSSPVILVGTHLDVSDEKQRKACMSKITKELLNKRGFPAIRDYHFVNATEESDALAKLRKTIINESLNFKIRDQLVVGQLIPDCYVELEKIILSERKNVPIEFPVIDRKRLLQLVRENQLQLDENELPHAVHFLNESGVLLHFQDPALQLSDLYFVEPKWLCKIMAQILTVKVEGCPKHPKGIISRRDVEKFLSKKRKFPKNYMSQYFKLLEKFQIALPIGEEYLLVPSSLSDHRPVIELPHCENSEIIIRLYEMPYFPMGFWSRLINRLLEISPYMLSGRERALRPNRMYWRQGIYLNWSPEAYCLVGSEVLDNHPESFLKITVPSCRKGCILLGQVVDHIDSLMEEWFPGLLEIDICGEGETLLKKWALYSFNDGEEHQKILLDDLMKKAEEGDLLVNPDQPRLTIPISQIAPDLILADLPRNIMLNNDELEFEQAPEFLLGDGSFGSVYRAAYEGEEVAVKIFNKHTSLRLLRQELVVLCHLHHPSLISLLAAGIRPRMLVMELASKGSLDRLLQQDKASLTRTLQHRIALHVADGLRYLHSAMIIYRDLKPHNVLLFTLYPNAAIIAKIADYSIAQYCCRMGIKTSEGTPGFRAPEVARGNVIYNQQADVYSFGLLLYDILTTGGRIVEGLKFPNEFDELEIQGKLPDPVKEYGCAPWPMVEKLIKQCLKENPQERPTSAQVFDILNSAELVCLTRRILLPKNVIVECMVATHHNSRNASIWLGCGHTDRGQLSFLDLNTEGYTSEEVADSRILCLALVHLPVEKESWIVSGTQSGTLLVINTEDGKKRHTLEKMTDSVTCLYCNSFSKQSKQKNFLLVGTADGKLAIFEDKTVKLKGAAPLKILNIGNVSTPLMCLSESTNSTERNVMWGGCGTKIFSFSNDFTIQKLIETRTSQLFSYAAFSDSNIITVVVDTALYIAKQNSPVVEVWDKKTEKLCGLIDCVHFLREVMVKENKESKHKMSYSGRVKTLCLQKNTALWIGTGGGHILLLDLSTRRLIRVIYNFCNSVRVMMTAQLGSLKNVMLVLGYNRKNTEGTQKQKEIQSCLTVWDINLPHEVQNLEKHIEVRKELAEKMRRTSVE
T1 sequence (Q5S007 970-2527 limits assumed): as the sequence (Q5S007 970-2527 G2019S limits assumed) above, with S1050G counted along it

IC50 [1]: 2.7 nM
IC50 [2]: 4.6 nM
percent inhibition of ABL [3]: 1.3%
percent inhibition of AKT [3]: −3.11%
percent inhibition of AURA [3]: −0.59%
percent inhibition of BTK [3]: −1.9%
percent inhibition of CDK2_CyclinA [3]: 3.76%
percent inhibition of CHK1 [3]: 4.68%
percent inhibition of CHK2 [3]: 2.05%
percent inhibition of CKIIa′ [3]: 5.19%
percent inhibition of CKIa [3]: 8.85%
percent inhibition of CaMKIIa [3]: 1.1%
percent inhibition of EGFR [3]: −0.51%
percent inhibition of ERK2 [3]: 2.62%
percent inhibition of EphA2 [3]: 0.13%
percent inhibition of FGFR1 [3]: 12.6%
percent inhibition of GSK3b [3]: 3.4%
percent inhibition of HGFR [3]: −7.71%
percent inhibition of IRAK4 [3]: 1.85%
percent inhibition of IRK [3]: 1.53%
percent inhibition of JAK3 [3]: −0.03%
percent inhibition of KDR (VEGF) [3]: 15.08%
percent inhibition of LCK [3]: 17.19%
percent inhibition of MARK1 [3]: 3.46%
percent inhibition of MK2 [3]: −3.62%
percent inhibition of MLCK_sk [3]: 3.8%
percent inhibition of MST2 [3]: 14.89%
percent inhibition of MST4 [3]: 8.04%
percent inhibition of PAK4 [3]: −0.05%
percent inhibition of PDK1 [3]: 0.39%
percent inhibition of PIM2 [3]: −3.78%
percent inhibition of PKACa [3]: −8.79%
percent inhibition of PRKCB2 [3]: 9.78%
percent inhibition of ROCKI [3]: 0.07%
percent inhibition of SGK [3]: −0.06%
percent inhibition of SRC [3]: 2.47%
percent inhibition of TAO2 [3]: 0.55%
percent inhibition of TIE2 [3]: 2.53%
percent inhibition of TRKA [3]: 12.31%
percent inhibition of ZC1 (HGK) [3]: −0.79%
percent inhibition of p38 [3]: 5.64%
SMILES: Cc1nc(Cc2nc3cnc4ccc(Cl)cc4c3n2[C@@H]2CCO[C@H](C)C2)no1 [Example 5, 8-Chloro-2-[(5-methyl-1,2,4-oxadiazol-3-yl)methyl]-1-[(2R,4R)-2-methyltetrahydro-2H-pyran-4-yl]-1H-imidazo[4,5-c]quinoline]

IC50 [1]: 4.9 nM
IC50 [2]: 8.3 nM
percent inhibition of ABL [3]: −2.51%
percent inhibition of AKT [3]: 1.03%
percent inhibition of AURA [3]: 7.17%
percent inhibition of BTK [3]: 0.22%
percent inhibition of CDK2_CyclinA [3]: 8.08%
percent inhibition of CHK1 [3]: 8.15%
percent inhibition of CHK2 [3]: 2.72%
percent inhibition of CKIIa′ [3]: 4.36%
percent inhibition of CKIa [3]: 18.22%
percent inhibition of CaMKIIa [3]: 7.62%
percent inhibition of EGFR [3]: 3.07%
percent inhibition of ERK2 [3]: 4.54%
percent inhibition of EphA2 [3]: 0.85%
percent inhibition of FGFR1 [3]: 20.35%
percent inhibition of GSK3b [3]: 4.45%
percent inhibition of HGFR [3]: −5.99%
percent inhibition of IRAK4 [3]: 3.88%
percent inhibition of IRK [3]: 2.83%
percent inhibition of JAK3 [3]: −1.51%
percent inhibition of KDR (VEGF) [3]: 14.24%
percent inhibition of LCK [3]: 15.63%
percent inhibition of MARK1 [3]: 1.48%
percent inhibition of MK2 [3]: 3.04%
percent inhibition of MLCK_sk [3]: 3.07%
percent inhibition of MST2 [3]: 16.25%
percent inhibition of MST4 [3]: 1.29%
percent inhibition of PAK4 [3]: 3.85%
percent inhibition of PDK1 [3]: 4.87%
percent inhibition of PIM2 [3]: −0.54%
percent inhibition of PKACa [3]: −0.89%
percent inhibition of PRKCB2 [3]: 4.71%
percent inhibition of ROCKI [3]: 1.89%
percent inhibition of SGK [3]: 1.58%
percent inhibition of SRC [3]: 4.66%
percent inhibition of TAO2 [3]: 0.82%
percent inhibition of TIE2 [3]: 4.72%
percent inhibition of TRKA [3]: 11.84%
percent inhibition of ZC1 (HGK) [3]: −3.58%
percent inhibition of p38 [3]: 9.62%
SMILES: Cc1cc(Cc2nc3cnc4ccc(Cl)cc4c3n2[C@@H]2CCO[C@H](C)C2)no1 [Example 4, 8-Chloro-2-[(5-methyl-1,2-oxazol-3-yl)methyl]-1-[(2R,4R)-2-methyltetrahydro-2H-pyran-4-yl]-1H-imidazo[4,5-c]quinoline]

IC50 [1]: 2.6 nM
IC50 [2]: 3.4 nM
percent inhibition of ABL [3]: 5.06%
percent inhibition of AKT [3]: 2.25%
percent inhibition of AURA [3]: 9.46%
percent inhibition of BTK [3]: 1.63%
percent inhibition of CDK2_CyclinA [3]: 10.91%
percent inhibition of CHK1 [3]: 9.08%
percent inhibition of CHK2 [3]: 4.45%
percent inhibition of CKIIa′ [3]: 3.12%
percent inhibition of CKIa [3]: 10.68%
percent inhibition of CaMKIIa [3]: 3.76%
percent inhibition of EGFR [3]: 2.76%
percent inhibition of ERK2 [3]: 4.69%
percent inhibition of EphA2 [3]: 0.7%
percent inhibition of FGFR1 [3]: 21.95%
percent inhibition of GSK3b [3]: 3.91%
percent inhibition of HGFR [3]: −3.76%
percent inhibition of IRAK4 [3]: 4.95%
percent inhibition of IRK [3]: 0.67%
percent inhibition of JAK3 [3]: −0.46%
percent inhibition of KDR (VEGF) [3]: 29%
percent inhibition of LCK [3]: 9.31%
percent inhibition of MARK1 [3]: 1.52%
percent inhibition of MK2 [3]: −1.14%
percent inhibition of MLCK_sk [3]: 4.74%
percent inhibition of MST2 [3]: 23.23%
percent inhibition of MST4 [3]: 10.29%
percent inhibition of PAK4 [3]: 4.23%
percent inhibition of PDK1 [3]: 8.16%
percent inhibition of PIM2 [3]: 4.47%
percent inhibition of PKACa [3]: 5.23%
percent inhibition of PRKCB2 [3]: −0.76%
percent inhibition of ROCKI [3]: 6.94%
percent inhibition of SGK [3]: 4.89%
percent inhibition of SRC [3]: 1.86%
percent inhibition of TAO2 [3]: 5.98%
percent inhibition of TIE2 [3]: 5.85%
percent inhibition of TRKA [3]: 13.01%
percent inhibition of ZC1 (HGK) [3]: 2.87%
percent inhibition of p38 [3]: 7.19%
SMILES: Cc1cn(Cc2nc3cnc4ccc(Cl)cc4c3n2[C@@H]2CCO[C@H](C)C2)nn1 [Example 11, 8-Chloro-1-[(2R,4R)-2-methyltetrahydro-2H-pyran-4-yl]-2-[(4-methyl-1H-1,2,3-triazol-1-yl)methyl]-1H-imidazo[4,5-c]quinoline]
